Data taken from paper PMC4351150 (Cancer immunology research, 2015).
Where “and” joins values, the source holds several entries; their conditions need not be identical. Equal entries are not always repeated.

Experiments:
[1] = tested on: CD8^+ T cells of HLA-A*02:01-expressing post-SCT AML patients; test: PE-peptide/HLA-A*02:01 tetramer flow cytometry of post-SCT AML patient PBMCs; format: cell-based
[2] = target: HLA-A*02:01 (Homo sapiens, UniProt P04439, D140Y/D185E/D98H/E176V/E277Q/G131W/G231S/I119V/I121R/I166T/I218V/L300P/L318F/N151K/N90K/P208A/P217A/Q86G/Q94H/R138H/R169H/T345S); test: iTopia binding affinity assay
[3] = tested on: CD8^+ TCRβ repertoire of Patient 5; test: Bulk TCRβ repertoire sequencing: mapping of tetramer-associated TCRβ clonotypes; design: species or system human; settings: for total share of tetramer-associated TCRβ clonotypes in TCRβ repertoire: Patient 5, sample 2 months later, 3×10^6 CD8^+ cells, Illumina HiSeq
[4] = tested on: CD8^+ cells; format: cell-based; settings: UNC-CDK4-1-pulsed T2 cells as stimulators; % of CD8^+ cells (Supplementary Figure 1)

Sequence	tetramer frequency, % of CD8^+ cells (positive patients) ([1]; 3 of 6 post-SCT AML patients, PE-UNC-CDK4-1/HLA-A*02:01 tetramer, 4°C, 25 minutes, threshold >0.01%)	tetramer^+ T-cell population frequency in Patient 5 ([1]; Patient 5, day +567 post-SCT, CMV seropositive, not viremic)	binding affinity to HLA-A*02:01 [2]	total share of tetramer-associated TCRβ clonotypes in TCRβ repertoire [3]	mean enrichment ratio of tetramer-associated clonotypes ([3]; clonotype frequency in tetramer^+ gate / clonotype frequency in bulk repertoire, Patient 5, t-test p < 0.0001 between antigens)	CD8^+ cells specific for UNC-CDK4-1 [4]
ALTPVVVTL [UNC-CDK4-1]	> 0.01%	0.04%	high affinity to HLA-A*02:01	> 17% and 17.1%	1.04×10^1	0.2%
NLVPMVATV [pp65NLV, reference compound]	–	–	–	0.002%	–	–
